In article PMC3592416 (Nucleic Acids Research, 2012):

Assays:
PoTC [1] = target: T1, PoTC (Saccharomyces cerevisiae, UniProt P02406+P0CX27); conditions: inhibitor alone, without eEF2/GTP; cited from earlier work
PoTC [2] = target: T1, PoTC; experiment: Release of mRNA from PoTC; format: biochemical; conditions: for effect of Mg2+ on the inhibitory effect (mRNA release): 100 µM antibiotic, various concentrations of MgCl2
eEF3/ribosomes = experiment: ATP hydrolysis assay; format: biochemical, Saccharomyces cerevisiae; conditions: for amount of ATPase inhibited: total ATP hydrolysis 97 pmol
PoTC [3] = target: T1, PoTC; experiment: Complete disassembly of PoTC by eEF3/ATP; format: biochemical; conditions: for inhibition of eEF3-dependent disassembly reaction: 1 mM antibiotic
translocation = conditions: cited from earlier work
vacant ribosomes = conditions: read-out: Kd with vacant ribosomes; cited from earlier work
yeast ribosomal subunits = experiment: Induction of subunit association; format: biochemical; conditions: 1 mM PAR, 5 s at 30°C after disassembly
PoTC [4] = target: T1, PoTC; conditions: cited from earlier work
[5] = 1 mM antibiotic, 50 µM ATP, 0.5 µM eEF3, 1 min 30°C

T1 sequence (P02406 2-149): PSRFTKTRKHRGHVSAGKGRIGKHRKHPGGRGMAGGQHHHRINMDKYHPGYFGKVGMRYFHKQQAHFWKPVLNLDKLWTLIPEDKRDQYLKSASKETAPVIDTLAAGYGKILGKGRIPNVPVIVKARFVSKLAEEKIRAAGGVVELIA
T1 sequence (P0CX27 2-106): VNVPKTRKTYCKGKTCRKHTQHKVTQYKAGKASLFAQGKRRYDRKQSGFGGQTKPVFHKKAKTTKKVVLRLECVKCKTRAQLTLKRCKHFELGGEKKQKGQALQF
T1 sequence (P16521 2-1044 partner): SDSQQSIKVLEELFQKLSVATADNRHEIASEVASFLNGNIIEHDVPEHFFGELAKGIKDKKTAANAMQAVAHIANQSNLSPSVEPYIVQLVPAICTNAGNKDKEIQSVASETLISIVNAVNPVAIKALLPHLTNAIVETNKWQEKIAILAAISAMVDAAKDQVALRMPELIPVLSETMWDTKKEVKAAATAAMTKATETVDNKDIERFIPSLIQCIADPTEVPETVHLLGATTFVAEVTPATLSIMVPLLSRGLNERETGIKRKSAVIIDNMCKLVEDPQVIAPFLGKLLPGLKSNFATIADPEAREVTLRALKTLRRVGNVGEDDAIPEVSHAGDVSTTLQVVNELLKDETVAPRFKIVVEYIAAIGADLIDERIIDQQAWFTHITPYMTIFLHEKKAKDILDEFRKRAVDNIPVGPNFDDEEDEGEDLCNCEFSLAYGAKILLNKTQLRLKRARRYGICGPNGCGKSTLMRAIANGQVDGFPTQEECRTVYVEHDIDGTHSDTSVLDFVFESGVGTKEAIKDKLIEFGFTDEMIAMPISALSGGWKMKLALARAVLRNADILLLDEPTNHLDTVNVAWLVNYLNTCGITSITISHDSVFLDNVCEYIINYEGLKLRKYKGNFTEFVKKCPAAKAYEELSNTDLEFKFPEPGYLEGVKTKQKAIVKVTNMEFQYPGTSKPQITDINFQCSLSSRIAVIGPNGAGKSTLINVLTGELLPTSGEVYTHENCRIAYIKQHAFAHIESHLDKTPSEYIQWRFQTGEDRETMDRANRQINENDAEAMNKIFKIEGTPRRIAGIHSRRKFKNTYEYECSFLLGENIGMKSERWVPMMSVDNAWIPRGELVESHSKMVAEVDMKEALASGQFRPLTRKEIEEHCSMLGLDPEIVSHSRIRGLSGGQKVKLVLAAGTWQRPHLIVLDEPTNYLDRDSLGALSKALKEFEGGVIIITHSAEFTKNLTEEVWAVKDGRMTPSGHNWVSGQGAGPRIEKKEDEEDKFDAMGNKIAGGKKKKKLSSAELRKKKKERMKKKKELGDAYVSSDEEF

Compound	inhibition of eEF3-dependent release of mRNA from PoTC (PoTC [1])	effect of Mg2+ on the inhibitory effect (mRNA release) (PoTC [2])	inhibition of ATP hydrolysis by eEF3/ribosomes (eEF3/ribosomes; [5])	amount of ATPase inhibited (eEF3/ribosomes; 1 mM antibiotic)	inhibition of eEF3-dependent disassembly reaction (PoTC [3])	other results
CC(=O)O[C@H]1C[C@@]2(C)[C@@H](C[C@@H](O)[C@H]3[C@@]4(C)CC[C@@H](O)[C@@H](C)[C@@H]4CC[C@@]32C)/C1=C(\CCC=C(C)C)C(=O)O [FA, fusidic acid]	only slightly inhibit	–	–	–	–	–
C[C@@H]1C[C@@H]([C@H](O)CC2CC(=O)NC(=O)C2)C(=O)[C@@H](C)C1 [CHX, cycloheximide]	–	remarkable stimulatory effect	~20%	22 pmol	almost complete maximum inhibition	mode of inhibition with respect to ATP (PoTC [2]; Lineweaver-Burk, mRNA release): non-competitive inhibitor; mode of inhibition with respect to eEF3 (PoTC [2]; Lineweaver-Burk, mRNA release): non-competitive inhibitor; IC50 (translocation; read-out: IC50 for the inhibition of translocation): 1200 nM; Kd (vacant ribosomes): 15 µM
NC[C@@H]1O[C@H](O[C@H]2[C@@H](O)[C@H](O[C@@H]3[C@@H](O)[C@H](N)C[C@H](N)[C@H]3O[C@H]3O[C@H](CO)[C@@H](O)[C@H](O)[C@H]3N)O[C@@H]2CO)[C@H](N)[C@@H](O)[C@@H]1O [PAR, paromomycin]	–	not significantly influenced	~20%	22 pmol	almost complete maximum inhibition	association of ribosomal subunits (yeast ribosomal subunits): re-associated yeast ribosomal subunits
[O]=[V]([O-])([O-])[O-] [vanadate]	–	–	–	–	–	amount of ATP hydrolysis inhibited (eEF3/ribosomes; vanadate positive control): 52 pmol; inhibition of ATP hydrolysis by eEF3/ribosomes (eEF3/ribosomes; vanadate positive control): about 50%; effect on the disassembly of PoTC (PoTC [4]): without inhibiting
C/C(=C\[C@H](C)C(=O)C[C@H](O)CC1CC(=O)NC(=O)C1)[C@@H]1OC(=O)/C=C/CC/C=C/C=C\[C@@H]1C [LTM, lactimidomycin]	–	–	–	–	–	concentration at which maximum inhibition was obtained (PoTC [3]; three disassembly reactions): 100 µM; concentration which inhibits translocation almost completely (translocation): 200 µM
CO[C@H]1[C@@H](O)[C@H](O)[C@H](OC[C@@]23C[C@@H]4[C@H](C)CC[C@H]4[C@@]4(C=O)CC2C=C(C(C)C)[C@@]34C(=O)O)O[C@@H]1C [SOR, sordarin]	only slightly inhibit	–	–	–	–	–
